The assay deals with T1, PKN1 (PRK1) (Homo sapiens, UniProt Q16512).
T1 construct: purchased Thermo Fisher Scientific (Life Technologies) SelectScreen
The assay can be described thus: SelectScreen Z'LYTE. Format: biochemical. The essentials: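 Percent values come from Thermo SelectScreen profiling of NU5455, combining activity and binding assays. CSF1R was run in Z'LYTE format at Km app ATP, and CAMK1 in Adapta format with ATP listed at 10.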

T1 sequence (Q16512 whole entry): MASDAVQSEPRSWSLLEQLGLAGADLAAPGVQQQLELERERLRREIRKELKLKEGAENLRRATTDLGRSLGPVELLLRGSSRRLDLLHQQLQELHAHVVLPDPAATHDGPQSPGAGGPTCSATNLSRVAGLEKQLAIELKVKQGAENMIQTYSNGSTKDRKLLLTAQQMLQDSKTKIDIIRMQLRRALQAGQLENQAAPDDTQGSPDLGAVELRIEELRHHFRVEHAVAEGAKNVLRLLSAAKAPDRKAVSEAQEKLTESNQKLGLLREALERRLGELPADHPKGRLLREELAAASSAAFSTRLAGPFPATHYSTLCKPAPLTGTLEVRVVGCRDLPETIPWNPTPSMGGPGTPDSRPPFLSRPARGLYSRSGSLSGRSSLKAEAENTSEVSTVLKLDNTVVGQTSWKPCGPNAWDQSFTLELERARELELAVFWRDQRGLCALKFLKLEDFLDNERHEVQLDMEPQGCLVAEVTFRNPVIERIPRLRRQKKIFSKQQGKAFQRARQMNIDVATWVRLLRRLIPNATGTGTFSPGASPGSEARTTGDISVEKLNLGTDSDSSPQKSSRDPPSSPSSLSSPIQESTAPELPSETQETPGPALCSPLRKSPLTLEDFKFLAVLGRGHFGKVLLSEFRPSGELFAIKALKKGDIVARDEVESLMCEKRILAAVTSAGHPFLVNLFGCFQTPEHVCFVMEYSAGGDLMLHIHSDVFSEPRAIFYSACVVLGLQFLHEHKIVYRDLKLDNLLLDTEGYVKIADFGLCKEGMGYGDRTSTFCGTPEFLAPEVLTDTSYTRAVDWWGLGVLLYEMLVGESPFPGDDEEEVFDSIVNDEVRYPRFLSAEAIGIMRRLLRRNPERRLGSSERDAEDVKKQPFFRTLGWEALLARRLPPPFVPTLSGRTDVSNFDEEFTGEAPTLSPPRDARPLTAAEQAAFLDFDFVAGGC

Take `CN(C(=O)CN1CCOCC1)c1ccc2sc3c(-c4cccc5c(=O)cc(N6CC7CCC(C6)O7)oc45)cccc3c2c1` [NU5455]: testing at 1 µM gave an inhibition of 3.6%.

For the origin of these results see publication PMC6934184, “Selective DNA-PKcs inhibition extends the therapeutic index of localized radiotherapy and chemotherapy” (The Journal of Clinical Investigation, 2019).
